Reference: patent US20120053076A1, “METHODS FOR IDENTIFICATION” (Cambridge Enterprise Limited, priority 2009, published 2012)

Key:
Oral bioavailability = details: in vivo
Jurkat-D3B cells = experiment: SDF-1α induced migration of Jurkat-D3B cells expressing sstr2; type: cell-based, human
Method: Methods: Total mRNA was prepared from Panc-1 cells (a human pancreas cell line which is well known to express high levels of sstr2) using the RNAqueous 4PCR kit (Ambion, Cat code #1914) in accordance with the manufacturer's instructions. The mRNA was then reverse transcribed (using the RETROscript kit; Ambio) to yield a cDNA preparation. A full length cDNA of the sstr2 gene was then obtained by PCR (using a Peltier PTC-200 thermal cycler using the following cycle times and conditions: 94° C. for 2 min, followed by 30 cycles of 94° C., for 30 sec, 55° C. for 30 sec, 72° C. for 1 min and finally 72° C. for 10 min), and isolated by preparative gel electrophoresis. The sequence of the sstr2 cDNA was confirmed by sequencing. The sstr2 cDNA was treated with EcoRI and Xhol to generate sticky ends, which allowed directional cloning into the polylinker of the plasmid pcDNA3.1+ (Invitrogen) followed by ligation (100 ligation reactions were run with 400 T4 DNA ligase (New England Biolabs) and the maximal amounts of DNA with an insert:plasmid ratio of 3:1 in ligase buffer incubated overnight at 13° C.). […]
A number of individual cell lines were obtained in this way, which expressed significant levels of sstr2 on the cell surface, detected by flow cytometry using the human-sstr2 antibody (Sigma, 50694; see Example 3 for details of the flow cytometry protocol used). […]

| Compound | Oral bioavailability, in words (Oral bioavailability) | Inhibition of Jurkat-D3B migration, in words (Jurkat-D3B cells) |
| --- | --- | --- |
| (S)-3-(2′,2′-dimethyldodecanoyl)amino-caprolactam [BN83250] | only poorly orally bioavailable |  |
| CC(C)(C)C(=O)N[C@H]1CCCNC1=O [Valerolactam, (S)-3-(2′,2′-dimethylpropionoylamino)-tetrahydropyridin-2-one] |  | sensitive to inhibition |
